The record followed here is paper PMC3266904, “Biochemical Discrimination between Selenium and Sulfur 2: Mechanistic Investigation of the Selenium Specificity of Human Selenocysteine Lyase” (PLoS ONE, 2012).

In this test the target is T1, human selenocysteine lyase (hSCL) (Homo sapiens, UniProt Q96I15).
T1 construct: gene SCLY
T1 sequence (Q96I15 8-445): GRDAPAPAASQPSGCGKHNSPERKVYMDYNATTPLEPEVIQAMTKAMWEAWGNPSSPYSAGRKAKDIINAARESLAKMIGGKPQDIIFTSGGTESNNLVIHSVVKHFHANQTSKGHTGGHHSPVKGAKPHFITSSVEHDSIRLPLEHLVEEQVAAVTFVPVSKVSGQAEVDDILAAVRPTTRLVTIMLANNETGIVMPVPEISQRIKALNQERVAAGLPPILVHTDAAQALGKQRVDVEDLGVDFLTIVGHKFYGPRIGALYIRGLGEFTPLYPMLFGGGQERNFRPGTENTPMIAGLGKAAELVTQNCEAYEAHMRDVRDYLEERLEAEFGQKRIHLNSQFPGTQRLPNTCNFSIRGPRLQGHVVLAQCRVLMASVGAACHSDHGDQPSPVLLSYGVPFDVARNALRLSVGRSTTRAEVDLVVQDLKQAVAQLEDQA
Kind of test: UV/Vis spectrum of as-isolated protein. Format: binding. The note with it: 120 mM Tris pH 8.5, 2 mM TCEP; covalent internal aldimine.

As to `Cc1ncc(COP(=O)(O)O)c(C=O)c1O` [PLP], the “UV/Vis spectrum of as-isolated protein” value is reported as “the Shiff base linking the PLP cofactor to the protein exists mainly in the protonated”.
